Measured values from US20140147467A1, “Novel broth medium and blood free solid media” (priority 2012, published 2014).
Converted amounts (≈) assume the structure as drawn. Where two headings read alike, the source gives them in different places.

System: P. salmonis
Test: MIC by broth micro dilution in Austral-SRS broth
Format: cell-based
Settings: Piscirickettsia salmonis
[1] = P. salmonis ATCC VR-1361 (type strain), 18° C., read-out: MIC value
[2] = P. salmonis isolates (austral-005), 18° C., n=10, read-out: MIC values

## CS(=O)(=O)c1ccc([C@@H](O)[C@@H](CF)NC(=O)C(Cl)Cl)cc1 [florfenicol]
  MIC: 0.5 µg/mL (≈ 1.4 µM)
[1]
  MIC: 0.25 to 0.5 µg/mL (≈ 0.698 to 1.4 µM)
[2]
  MIC: 0.25 to 0.5 µg/mL (≈ 0.698 to 1.4 µM)

## CN(C)[C@@H]1C(O)=C(C(N)=O)C(=O)[C@@]2(O)C(O)=C3C(=O)c4c(O)cccc4[C@@](C)(O)[C@H]3[C@H](O)[C@@H]12 [oxytetracycline]
  MIC: 0.124 µg/mL (≈ 0.269 µM)
[1]
  MIC: 0.25 to 0.5 µg/mL (≈ 0.543 to 1.09 µM)
[2]
  MIC: 0.125 to 2.5 µg/mL (≈ 0.271 to 5.43 µM)
